This note sets out measurements from patent publication US6316409A, “Modified ligands of calcium-dependent binding proteins” (Medical Research Council, priority 1996, dated 2001).

SMILES strings stand for the structures. Peptide text beside a SMILES is read from it.

Test [1] addresses T1, calmodulin (Bos taurus, UniProt P62157). Kind of test: kinetic analysis of N9 replacement peptides and multiple mutant by the methods of Examples 3 and 4. In kind it is binding. As for the experimental part: Real-time interaction analysis by surface plasmon resonance on a BIAcore instrument (Jonsson et al., 1991) was used to determine kon and koff constants. […] Different concentrations of calmodulin (5, 10, 20, 50 and 100 nM in the order of FIG. 2) were injected and allowed to associate with the peptides. Regeneration of the surface was achieved by injection of 5 μl TBS+[…] which dissociates the calmodulin-peptide complex.
30 nM fluorescein-labelled peptide/calmodulin complexes in gel buffer were competed at room temperature for different times with 30-fold excess of unlabelled peptide. The resulting mixtures were run on native PAGE gels and imaged by LUANA as described above. The bands in the image obtained were integrated using the LUANA software (Neri et al., 1996) and the corresponding intersities plotted versus time and fitted with a single exponential, from which koff constants were derived. In order to normalise band intensities against pipetting errors, the samples contained 6 nM free fluorescein which ran with the front. The fluorescein bands were integrated and used to normalise the calmodulin/fluorescent peptide complex band intensity. […] Incubation time in minutes is indicated under the lanes.
Hydrophobic donor residues (valine, phenylalanine and leucine) were chosen because it was hypothesized that these residues would contribute to the stability of the hydrophobic environment in the calmodulin core.

Test [2] concerns the target T2, bovine brain calmodulin (Bos taurus, UniProt P62157).
T2 construct: Complexes between calmodulin from bovine brain (1 μM, Sigma); purchased Sigma; host or cells: bovine brain (tissue-derived)
Briefly: stopped-flow measurement of kisom of calmodulin-binding peptides. The note with it: changes in tryptophan fluorescence. An excerpt: It has been shown by Torok and Trentham (1994) that smooth muscle MLCK-derived peptides bind to calmodulin with a biphasic kinetic according to the scheme: [drawing 1]
in which P is the peptide, C is calmodulin, P-C is the first complex formed on association of P and C, which then undergoes a conformational isomerisation to P-C*.
(§1) For a kinetic and thermodynamic characterisation of the binding of the peptides of the present invention to bovine brain calmodulin, we have measured the kinetic isomerisation, association, and dissociation constants from which dissociation constants can be derived.
kisom constants have been measured by stopped-flow, detecting changes in tryptophan fluorescence for all the peptides except 3 (SEQ ID NO:4), in which the tryptophan is replaced by alanine.

For test [3], the target named is T2, bovine brain calmodulin. Kind of test: BIAcore surface plasmon resonance, kon and koff of calmodulin binding to biotinylated peptides. The conditions noted are these: for koff: read-out: koff (s^-1)^B; for kon: read-out: kon (s^-1 M^-1)^B.
Text: as §1
koff =k-1·k-2 /(k+2 +k-2)
Real-time interaction analysis by surface plasmon resonance on a BIAcore instrument (Jonsson et al., 1991) was used to determine kon and koff constants. Biotinylated peptides 1-17 were bound to commercially available streptavidin-coated microsensor chips (Pharmacia Biosensor), in order to achieve a surface capacity of 100-200 surface plasmon resonance units of calmodulin bound. Different concentrations of calmodulin (5, 10, 20, 50 and 100 nM in the order of FIG. 2) were injected and allowed to associate with the peptides. Regeneration of the surface was achieved by injection of 5 μl TBS+[…] which dissociates the calmodulin-peptide complex.
For orientation: Surface plasmon resonance follows binding to a sensor surface in real time, without labels.

Test [4] has as its target T1, calmodulin. Kind of test: koff by competition experiments, native PAGE of fluorescein-labelled peptide/calmodulin complexes. Also noted: Complexes between calmodulin from bovine brain (1 μM, Sigma); purchased Sigma; host or cells: bovine brain (tissue-derived). The conditions noted are these: for koff: competition with 30-fold excess unlabelled peptide, room temperature, gel buffer, read-out: koff (s^-1)^C; for dissociation from calmodulin in competition with excess unlabelled peptide, in words: FIG. 3. In kind it is binding, bovine. As for the experimental part: Complexes between calmodulin from bovine brain (1 μM, Sigma) and fluorescein-labelled sMLCK-derived peptides (as described in Table 1 (SEQ ID NOS:2-18)) were prepared in gel buffer (25% gel mix [4 g sucrose+1 mg bromophenol blue in water to give a 10 ml solution]+75% TBSC [50 mM TRIS pH 7.4, […]+50 μM CaCl2)] and run on a 15% native PAGE gel (5 ml 30% acrylamide-bisacrylamide solution+4.5 ml water+0.5 ml 3M Tris, pH 8.8, +1 μl 1M CaCl2 polymerised with 30 μl 25% ammonium persulphate and 9 μl TEMED) using 14.4 g/l glycine+3 g/l Tris-base+0.1 mM CaCl2 as running buffer. Peptides were labelled either with iodoacetamido fluorescein (Molecular Probes) or with iodoacetamido-LC-biotin (Pierce) essentially as previously described by Neri et al., (1995). In these conditions, the fluorescence of the positively-charged labelled peptides can be detected only if they form a stable complex with calmodulin.
In order to obtain an independent experimental confirmation if the BIAcore results, koff constants for peptides 1-17 towards calmodulin were determined by competition experiments. 30 nM fluorescein-labelled peptide/calmodulin complexes in gel buffer were competed at room temperature for different times with 30-fold excess of unlabelled peptide. The resulting mixtures were run on native PAGE gels and imaged by LUANA as described above. The bands in the image obtained were integrated using the LUANA software (Neri et al., 1996) and the corresponding intersities plotted versus time and fitted with a single exponential, from which koff constants were derived. In order to normalise band intensities against pipetting errors, the samples contained 6 nM free fluorescein which ran with the front. The fluorescein bands were integrated and used to normalise the calmodulin/fluorescent peptide complex band intensity. The results of competitions for peptides 1, 2, 3, 6, 9, and 14 are shown in this FIG. 3. Incubation time in minutes is indicated under the lanes.
The volumes of the bands were plotted versus competition time and fitted to a single exponential, from which koff values were derived.
The fastest competitions (peptides 1-4, 9 and 13, SEQ ID NOS:2-5,10, and 14) were over by the time the calmodulin/fluorescent peptide complex entered the gel (approximately 5-10 minutes from pipetting a molar excess of unlabelled peptide; FIG. 3), from which a condition on the off-rate constant koff >1×10^-3 s^-1 was derived. Even for these fast off-rates, complexes can be detected by native polyacrylamide gel electrophoresis because of the well known gel "cage effect" (Fried and Crothers, 1981; Garner and Revzin, 1981).

Turning to `CC[C@H](C)[C@H](NC(=O)[C@H](CCCCN)NC(=O)[C@H](C)NC(=O)[C@H](Cc1ccccc1)NC(=O)[C@H](CCCNC(=N)N)NC(=O)[C@H](CC(N)=O)NC(=O)[C@H](C)NC(=O)[C@H](C)NC(=O)[C@H](C)NC(=O)[C@@H](NC(=O)[C@H](C)NC(=O)[C@@H](NC(=O)[C@H](Cc1ccccc1)NC(=O)[C@H](C)NC(=O)[C@H](CCCCN)NC(=O)[C@H](CCCCN)NC(=O)[C@H](Cc1c[nH]c2ccccc12)NC(=O)[C@H](CCCNC(=N)N)NC(=O)[C@H](C)NC(=O)[C@H](C)NC(=O)[C@H](C)NC(=O)[C@@H](N)CS)[C@@H](C)CC)C(C)C)C(=O)N[C@@H](C)C(N)=O` [SEQ ID NO:19] (H-CAAARWKKAFIAVAAANRFAKIA-NH2; N-terminus and C-terminus assumed), the “affinity for calmodulin compared with other peptides, in words” value in test [1] was “comparable to that of peptide 6”. In test [1] (multiple mutant), the koff (as a rule, a measure of how fast the partners let go of each other) was 5.9e-06 s⁻¹ and the kon (in general, a measure of how fast the partners come together) came out at 610000 M⁻¹ s⁻¹.
Turning to `CC[C@H](C)[C@H](NC(=O)[C@H](Cc1ccccc1)NC(=O)[C@H](Cc1ccccc1)NC(=O)[C@H](CCCCN)NC(=O)[C@H](CCCCN)NC(=O)[C@H](Cc1c[nH]c2ccccc12)NC(=O)[C@H](CCCNC(=N)N)NC(=O)[C@H](C)NC(=O)[C@H](C)NC(=O)[C@H](C)NC(=O)[C@@H](N)CS)C(=O)N[C@@H](C)C(=O)N[C@H](C(=O)N[C@@H](CO)C(=O)N[C@@H](C)C(=O)N[C@@H](C)C(=O)N[C@@H](CC(N)=O)C(=O)N[C@@H](CCCNC(=N)N)C(=O)N[C@@H](Cc1ccccc1)C(=O)N[C@@H](CCCCN)C(=O)N[C@@H](CCCCN)C(=O)N[C@H](C(=O)N[C@@H](CO)C(N)=O)[C@@H](C)CC)C(C)C` [b] (H-CAAARWKKFFIAVSAANRFKKIS-NH2; N-terminus and C-terminus assumed), in test [1] (Table II, N9 replacement), the koff turned out to be 2.9e-05 s⁻¹ and the kon stood at 290000 M⁻¹ s⁻¹.
In the case of `CC[C@H](C)[C@H](NC(=O)[C@H](Cc1ccccc1)NC(=O)[C@@H](NC(=O)[C@H](CCCCN)NC(=O)[C@H](CCCCN)NC(=O)[C@H](Cc1c[nH]c2ccccc12)NC(=O)[C@H](CCCNC(=N)N)NC(=O)[C@H](C)NC(=O)[C@H](C)NC(=O)[C@H](C)NC(=O)[C@@H](N)CS)C(C)C)C(=O)N[C@@H](C)C(=O)N[C@H](C(=O)N[C@@H](CO)C(=O)N[C@@H](C)C(=O)N[C@@H](C)C(=O)N[C@@H](CC(N)=O)C(=O)N[C@@H](CCCNC(=N)N)C(=O)N[C@@H](Cc1ccccc1)C(=O)N[C@@H](CCCCN)C(=O)N[C@@H](CCCCN)C(=O)N[C@H](C(=O)N[C@@H](CO)C(N)=O)[C@@H](C)CC)C(C)C` [a] (H-CAAARWKKVFIAVSAANRFKKIS-NH2; N-terminus and C-terminus assumed), in test [1] (Table II, N9 replacement), the koff was found to be 0.00035 s⁻¹ and the kon stood at 850000 M⁻¹ s⁻¹.
On to `CC[C@H](C)[C@H](NC(=O)[C@H](CCCCN)NC(=O)[C@H](CCCCN)NC(=O)[C@H](Cc1ccccc1)NC(=O)[C@H](CCCNC(=N)N)NC(=O)[C@H](CC(N)=O)NC(=O)[C@H](C)NC(=O)[C@H](C)NC(=O)[C@H](CO)NC(=O)[C@@H](NC(=O)[C@H](C)NC(=O)[C@H](C)NC(=O)[C@H](Cc1ccccc1)NC(=O)[C@H](CC(N)=O)NC(=O)[C@H](CCCCN)NC(=O)[C@H](CCCCN)NC(=O)[C@H](Cc1c[nH]c2ccccc12)NC(=O)[C@H](CCCNC(=N)N)NC(=O)[C@H](C)NC(=O)[C@H](C)NC(=O)[C@H](C)NC(=O)[C@@H](N)CS)C(C)C)C(=O)N[C@@H](CO)C(N)=O` [Peptide 8] (H-CAAARWKKNFAAVSAANRFKKIS-NH2; N-terminus assumed), for which the “kisom. (s^-1)^A” value in test [2] is recorded as 1.1 (10.3) × 10^-1 s^-1. Besides, the koff was determined as 0.00023 s⁻¹ in test [3] (BIAcore) and 0.00047 s⁻¹ in test [4]. The kon in test [3] (BIAcore) is 920000 M⁻¹ s⁻¹.
For the compound `CC[C@H](C)[C@H](NC(=O)[C@H](Cc1ccccc1)NC(=O)[C@H](CC(N)=O)NC(=O)[C@H](CCCCN)NC(=O)[C@H](CCCCN)NC(=O)[C@H](Cc1c[nH]c2ccccc12)NC(=O)[C@H](CCCNC(=N)N)NC(=O)[C@H](C)NC(=O)[C@H](C)NC(=O)[C@H](C)NC(=O)[C@@H](N)CS)C(=O)N[C@@H](C)C(=O)N[C@H](C(=O)N[C@@H](CO)C(=O)N[C@@H](C)C(=O)N[C@@H](C)C(=O)N[C@@H](CC(N)=O)C(=O)N[C@@H](CCCNC(=N)N)C(=O)N[C@@H](Cc1ccccc1)C(=O)N[C@@H](C)C(=O)N[C@@H](CCCCN)C(=O)N[C@H](C(=O)N[C@@H](CO)C(N)=O)[C@@H](C)CC)C(C)C` [Peptide 14] (H-CAAARWKKNFIAVSAANRFAKIS-NH2; N-terminus assumed), the “kisom. (s^-1)^A” value in test [2] is recorded as 1.6 (10.2) × 10^-2 s^-1. In test [3] (BIAcore), the “increase in kon with respect to the wild-type peptide 1” value is given as 4-5 fold, the koff was found to be 0.00014 s⁻¹ and the kon came out at 2.5e+06 M⁻¹ s⁻¹. Further, the “improvement in Kd / affinity for calmodulin over the wild type peptide, in words” value in test [3] (Table 1) is recorded as “greatest improvement in affinity”. In test [4], the “dissociation from calmodulin in competition with excess unlabelled peptide, in words” value is listed as “intermediate off-rate” and the koff came to 0.00015 s⁻¹.
As to `CC[C@H](C)[C@H](NC(=O)[C@H](Cc1ccccc1)NC(=O)[C@H](CC(N)=O)NC(=O)[C@H](CCCCN)NC(=O)[C@H](CCCCN)NC(=O)[C@H](Cc1c[nH]c2ccccc12)NC(=O)[C@H](CCCNC(=N)N)NC(=O)[C@H](C)NC(=O)[C@H](C)NC(=O)[C@H](C)NC(=O)[C@@H](N)CS)C(=O)N[C@@H](C)C(=O)N[C@H](C(=O)N[C@@H](CO)C(=O)N[C@@H](C)C(=O)N[C@@H](C)C(=O)N[C@@H](CC(N)=O)C(=O)N[C@@H](CCCNC(=N)N)C(=O)N[C@@H](Cc1ccccc1)C(=O)N[C@@H](CCCCN)C(=O)N[C@@H](CCCCN)C(=O)N[C@H](C(=O)N[C@@H](CO)C(N)=O)[C@@H](C)CC)C(C)C` [Peptide 1, CAAA-RWKKNFIAVSAANRFKKIS-CONH2] (H-CAAARWKKNFIAVSAANRFKKIS-NH2; N-terminus assumed), the “kisom. (s^-1)^A” value in test [2] is listed as 1.9 (10.7) × 10^-1 s^-1. In addition, in test [3] (BIAcore), the koff worked out at 0.0024 s⁻¹ and the kon was 650000 M⁻¹ s⁻¹. Further, in test [4], the “dissociation from calmodulin in competition with excess unlabelled peptide, in words” value was “dissociated from calmodulin in a few minutes” and the koff was at least 0.001 s⁻¹.
